According to US9371305B2, “Deuterated benzopyran compounds and application thereof” (Guangzhou Institutes of Biomedicine And Health, Chinese …, priority 2012, dated 2016):
Read-outs that look alike come from different tables or passages of the source.

How the values were obtained:
[1] = test system: generation of TXB2 in the whole blood; test: whole blood assay, yield of TXB2 in coagulated blood (ELISA); assay type: cell-based; details: Homo sapiens, read-out: inhibition IC50 onto generation of TXB2 in the whole blood test
Experimental: (§1) Deuterated benzopyran compounds of different concentrations were uniformly mixed with ovine COX-1 and human recombinant COX-2 for incubation for 15 min, respectively, and then the system was added with Heme and ADHP for incubation for another 2 min and finally added with substrate arachidonic acid. The light emission intensity of the reaction product at 595 nm was immediately detected by a microplate reader under exciting light at 530 nm. […] In the whole blood assay, venous blood of healthy donors was collected with a non-anticoagulation tube and a heparin tube, deuterated benzopyran compounds of different concentrations (1×10^−8 to 1×10^−4) were mixed with the blood in the non-anticoagulation tube, the supernatant was collected after the blood was coagulated and then measured by ELISA in terms of the yield of TXB2; and deuterated benzopyran compounds of different concentrations (1×10^−8 to 1×10^−4) were mixed with the blood in the heparin tube, the mixture was added with lipopolysaccharide until the final concentration was 100 μg/mL, mixed uniformly and then kept stand overnight at 37° C., the supernatant was collected by centrifugation and then measured by ELISA in terms of the yield of PGE2. […]

[2] = test system: generation of PGE2 in the whole blood; test: whole blood assay, lipopolysaccharide-induced yield of PGE2 in heparin blood (ELISA); assay type: cell-based, human; details: for IC50: Homo sapiens, read-out: inhibition IC50 onto generation of PGE2 in the whole blood test
Experimental: (§2) Deuterated benzopyran compounds of different concentrations were uniformly mixed with ovine COX-1 and human recombinant COX-2 for incubation for 15 min, respectively, and then the system was added with Heme and ADHP for incubation for another 2 min and finally added with substrate arachidonic acid. The light emission intensity of the reaction product at 595 nm was immediately detected by a microplate reader under exciting light at 530 nm. […] In the whole blood assay, venous blood of healthy donors was collected with a non-anticoagulation tube and a heparin tube, deuterated benzopyran compounds of different concentrations (1×10^−8 to 1×10^−4) were mixed with the blood in the non-anticoagulation tube, the supernatant was collected after the blood was coagulated and then measured by ELISA in terms of the yield of TXB2; and deuterated benzopyran compounds of different concentrations (1×10^−8 to 1×10^−4) were mixed with the blood in the heparin tube, the mixture was added with lipopolysaccharide until the final concentration was 100 μg/mL, mixed uniformly and then kept stand overnight at 37° C., the supernatant was collected by centrifugation and then measured by ELISA in terms of the yield of PGE2.

[3] = Test on pharmacokinetics and bioavailability of rats; assay type: in vivo, SD rats; details: for Vd / BA / AUC / Cmax / Tmax / half-life / t½: male SD rats; for BA: oral, calculated according AUC data; for AUC / Cmax / Tmax / half-life / t½: oral administration; for half-life: read-out: t½ (converted)
Experimental: The blood samples employ acetonitrile to precipitate protein, 16000 rpm*30 min, and the supernatant is used for LC/MS analysis. Data is performed with parameter fitting by DAS2.0, and the bioavailability of oral administration of compounds is calculated according AUC data.

ovine COX-1 = target: T1, ovine COX-1 (Ovis aries, UniProt P05979); test: COX-1 enzyme inhibition (ADHP fluorescence); assay type: biochemical
T1 sequence (P05979 25-600): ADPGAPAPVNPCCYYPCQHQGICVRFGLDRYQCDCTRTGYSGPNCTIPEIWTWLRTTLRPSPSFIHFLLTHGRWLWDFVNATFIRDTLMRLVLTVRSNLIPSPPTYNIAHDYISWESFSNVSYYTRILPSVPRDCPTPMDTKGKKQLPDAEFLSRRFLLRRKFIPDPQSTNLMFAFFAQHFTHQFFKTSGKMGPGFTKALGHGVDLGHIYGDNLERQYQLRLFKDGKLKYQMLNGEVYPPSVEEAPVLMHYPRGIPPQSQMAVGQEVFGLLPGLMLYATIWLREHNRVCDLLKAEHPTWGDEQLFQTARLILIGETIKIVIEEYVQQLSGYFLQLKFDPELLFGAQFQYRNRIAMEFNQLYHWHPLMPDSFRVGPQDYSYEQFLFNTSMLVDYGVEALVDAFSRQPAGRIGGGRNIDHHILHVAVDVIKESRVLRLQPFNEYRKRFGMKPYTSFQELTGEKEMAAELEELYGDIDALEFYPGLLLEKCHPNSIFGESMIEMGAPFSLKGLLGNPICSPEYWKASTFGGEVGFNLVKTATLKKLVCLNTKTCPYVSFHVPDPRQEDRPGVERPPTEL
Experimental: as §1

human recombinant COX-2 = target: T2, human recombinant COX-2 (Homo sapiens, UniProt P35354); test: COX-2 enzyme inhibition (ADHP fluorescence); assay type: biochemical; details: for IC50: human recombinant COX-2, 15 min incubation
T2 sequence (P35354 18-604): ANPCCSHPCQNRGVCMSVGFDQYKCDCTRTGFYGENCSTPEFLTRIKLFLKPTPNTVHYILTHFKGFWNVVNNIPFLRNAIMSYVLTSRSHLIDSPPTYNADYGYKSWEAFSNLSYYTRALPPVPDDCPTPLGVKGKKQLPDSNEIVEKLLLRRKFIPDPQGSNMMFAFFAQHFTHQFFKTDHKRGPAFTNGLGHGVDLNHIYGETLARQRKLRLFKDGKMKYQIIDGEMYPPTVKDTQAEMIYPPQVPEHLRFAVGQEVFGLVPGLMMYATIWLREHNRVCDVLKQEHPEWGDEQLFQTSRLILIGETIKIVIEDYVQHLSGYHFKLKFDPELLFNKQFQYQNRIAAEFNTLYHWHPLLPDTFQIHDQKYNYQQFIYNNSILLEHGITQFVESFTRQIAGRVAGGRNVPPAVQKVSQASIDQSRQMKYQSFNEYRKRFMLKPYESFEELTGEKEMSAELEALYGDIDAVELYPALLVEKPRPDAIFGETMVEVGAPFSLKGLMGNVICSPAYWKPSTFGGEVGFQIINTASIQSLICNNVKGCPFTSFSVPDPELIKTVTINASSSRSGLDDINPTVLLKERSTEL
Experimental: as §2

[4] = blood of healthy donors, non-anticoagulation tube
[5] = blood of healthy donors, heparin tube, lipopolysaccharide 100 μg/mL, overnight at 37° C.
[6] = rat, plasma, single dose 25 mg/kg
[7] = rat, plasma, single dose 25 mg/kg, read-out: Cmax
[8] = rat, plasma, single dose 25 mg/kg, read-out: Tmax
[9] = ovine COX-1, 15 min incubation, read-out: Inhibition IC50 COX-1
[10] = rat, plasma, single dose 2.5 mg/kg
[11] = rat, plasma, single dose 2.5 mg/kg, read-out: Cmax
[12] = rat, plasma, single dose 2.5 mg/kg, read-out: Tmax
[13] = rat, plasma, single dose 10 mg/kg

SMILES | IC50 [1, 4] [µM] | IC50 [2, 5] [µM] | IC50 (ovine COX-1; [9]) [µM] | IC50 [1] [µM] | IC50 [2] [µM] | Vd ([3]; single dose 2.5 mg/kg) [L/kg] | BA ([3]; single dose 2.5 mg/kg) [%] | AUC [3, 10] [ng·h/mL] | Cmax [3, 11] [ng/mL] | Tmax [3, 12] [h] | half-life [3, 10] [h] | Vd ([3]; single dose 10 mg/kg) [L/kg] | Cmax ([3]; single dose 10 mg/kg) [ng/mL] | Tmax ([3]; single dose 10 mg/kg) [h] | t½ ([3]; single dose 10 mg/kg) [h] | BA ([3]; single dose 10 mg/kg) [%] | AUC [3, 13] [ng·h/mL] | IC50 (human recombinant COX-2) [µM] | other results
[2H]C([2H])([2H])C([2H])([2H])c1cc(OC(F)(F)F)cc2c1OC(C(F)(F)F)C(C(=O)O)=C2 (stereo not drawn) [GIBH-1006, 8-(ethyl-D5)-6-(trifluoromethoxy)-2-(trifluoromethyl)-2H-chromene-3-carboxylic acid] | 20.5 | 79.5 | > 100 | – | – | – | – | – | – | – | – | – | – | – | – | – | – | – | Vd ([3]; single dose 25 mg/kg): 0.68 L/kg; BA ([3]; single dose 25 mg/kg): 78.6%; AUC value compared among the compounds (in words) ([3]; rat PK, doses differ between compounds): highest; AUC [3, 6]: 511000 ng·h/mL; Cmax [3, 7]: 29500 ng/mL; Tmax [3, 8]: 1.62 h; half-life [3, 6]: 9.54 h
[2H]C([2H])([2H])c1cc(Cl)c2c(c1)C=C(C(=O)O)C(C(F)(F)F)O2 (stereo not drawn) [GIBH-1018, 8-chloro-6-(methyl-D3)-2-(trifluoromethyl)-2H-chromene-3-carboxylic acid] | – | – | > 100 | > 100 | 78.9 | 0.31 | 90.6 | 28300 | 11800 | 0.271 | 2.43 | – | – | – | – | – | – | – | –
[2H]C([2H])([2H])c1cc(Br)cc2c1OC(C(F)(F)F)C(C(=O)O)=C2 (stereo not drawn) [GIBH-1014, 6-bromo-8-(methyl-D3)-2-(trifluoromethyl)-2H-chromene-3-carboxylic acid] | – | – | 31.8 | > 100 | 45.2 | – | – | – | – | – | – | 0.53 | 35300 | 0.417 | 5.2 | 107.4 | 143000 | 0.0368 | selectivity to the inhibition of COX-2 enzyme of blood cells ([2]; human whole blood COX enzyme activity test): better selectivity; ratio of the selectivity to COX-2 to the selectivity to COX-1 (human recombinant COX-2; from enzyme IC50 values COX-1/COX-2): 862
[2H]C([2H])([2H])c1cc(Cl)cc2c1OC(C(F)(F)F)C(C(=O)O)=C2 (stereo not drawn) [GIBH-1012, 6-chloro-8-(methyl-D3)-2-(trifluoromethyl)-2H-chromene-3-carboxylic acid] | – | – | > 100 | > 100 | > 100 | – | 110.7 | 38900 | – | – | – | – | – | – | – | – | – | – | Cmax ([3]; single dose 2.5 mg/kg): 8945 ng/mL; Tmax ([3]; single dose 2.5 mg/kg): 0.5 h; t½ ([3]; single dose 2.5 mg/kg): 3.37 h
[2H]C([2H])([2H])c1cc2c(c(C([2H])([2H])[2H])c1Br)C=C(C(=O)O)C(C(F)(F)F)O2 (stereo not drawn) [GIBH-1010, 6-bromo-5,7-(dimethyl-D6)-2-(trifluoromethyl)-2H-chromene-3-carboxylic acid] | 38.9 | > 100 | > 100 | – | – | – | – | – | – | – | – | 0.57 | 21399 | 0.5 | 3.35 | 111.8 | 84800 | 0.0671 | –
[2H]C([2H])([2H])c1c(Br)c2c(c(C([2H])([2H])[2H])c1Br)C=C(C(=O)O)C(C(F)(F)F)O2 (stereo not drawn) [GIBH-1051, 6,8-dibromo-5,7-(dimethyl-D6)-2-(trifluoromethyl)-2H-chromene-3-carboxylic acid] | – | – | 5.45 | 70.6 | > 100 | 1.004 | 63.7 | 13000 | 4480 | 0.688 | 1.76 | – | – | – | – | – | – | 0.0841 | –
[2H]C([2H])([2H])c1ccc2c(c1)C=C(C(=O)O)C(C(F)(F)F)O2 (stereo not drawn) [GIBH-1004, 6-(methyl-D3)-2-(trifluoromethyl)-2H-chromence-3-carboxylic acid] | – | – | > 100 | > 100 | 67.5 | – | – | – | – | – | – | – | – | – | – | – | – | – | Vd ([3]; single dose 25 mg/kg): 0.58 L/kg; BA ([3]; single dose 25 mg/kg): 46.1%; AUC [3, 6]: 181000 ng·h/mL; Cmax [3, 7]: 34200 ng/mL; Tmax [3, 8]: 0.563 h; half-life [3, 6]: 2.88 h
[2H]C([2H])([2H])c1cc2c(c(C([2H])([2H])[2H])c1Cl)C=C(C(=O)O)C(C(F)(F)F)O2 (stereo not drawn) [GIBH-1008, 6-chloro-5,7-(dimethyl-D6)-2-(trifluoromethyl)-2H-chromene-3-carboxylic acid] | 65.1 | 78.5 | > 100 | – | – | – | – | – | – | – | – | 0.26 | 20900 | 1.167 | 2.1 | 92.8 | 118000 | – | IC50 (ovine COX-1; read-out: IC50 value of COX-1): > 100 µM
[2H]C([2H])([2H])c1cc2c(c(C([2H])([2H])[2H])c1)OC(C(F)(F)F)C(C(=O)O)=C2 (stereo not drawn) [GIBH-1016, 6,8-(dimethyl-D6)-2-(trifluoromethyl)-2H-chromene-3-carboxylic acid] | – | – | – | > 100 | > 100 | 0.94 | 65.1 | 4330 | 4400 | 0.187 | 1.04 | – | – | – | – | – | – | – | IC50 (ovine COX-1): > 100 µM
